# Test results reported in US20040171489A1, “Synergistic active compound combinations for controlling harmful plants” (priority 1998, published 2004).
# Where a name gives a salt, the structure may show the parent alone.
# How the values were obtained:
# [1] = tested on: winter barley; experiment: Example 1 field trial, 2-4 leaf stage: crop damage; assay type: in vivo, Hordeum vulgare; details: winter barley (Hordeum vulgare), in vivo, 28 days
# Description: (§1) The herbicidal efficacy of the active compounds or active compound mixtures was scored visually using the treated plots in comparison to untreated control plots. The damage and development of all above-ground parts of the plants were recorded. Scoring was carried out using a percentage scale (100% effect=all plants killed; 50% effect=50% of the plants and the green parts of the plants killed; 0% effect=no noticeable effect=like control plot. The scores of in each case 4 plots were averaged.
# (§2) If the observed activity values already exceed the formal sum of the values for the trials with the individual applications, they also exceed the expected value according to Colby which is calculated using the following formula and which is likewise considered to be an indication of synergism (cf. S. R. Colby; in Weeds 15 (1967) p. 20 to 22):
# (§3) Crop plants were grown outdoors on plots under natural outdoor conditions, and seeds or rhizome pieces of typical harmful plants were laid out or the natural weed growth was utilized. Treatment with the compositions according to the invention was carried out after the harmful plants had emerged and the crop plants were, generally, at the 2- to 4-leaf stage; in some cases (as stated), application of individual active compounds or active compound combinations was carried out pre-emergence (cf. Section 1) or post-emergence (cf. Section 2) or as a sequential treatment partly pre-emergence and/or post-emergence. After the application, for example 2, 4, 6 and 8 weeks after the application, the effect of the preparations was scored visually by comparison with untreated controls (cf. scoring in Section 1). In the field trial as well, the compositions according to the invention have synergistic herbicidal activity against a broad spectrum of economically important weed grasses and broad-leaved weeds. […] Moreover, the effects in essential phases of the scoring period were above the expected values according to Colby, also indicating synergism. In contrast, the crop plants were, as a consequence of the treatments with the herbicidal compositions, damaged only to a small degree, if at all.
# [2] = tested on: Papaver rhoeas; experiment: Example 1 field trial, 2-4 leaf stage: herbicidal effect; assay type: in vivo; details: 1000 g of ai/ha; 28 days after application
# Description: as §1, §2, §3
# [3] = tested on: winter barley; experiment: Example 9 field trials, application 1-3 leaf stage broad-leaved weeds: crop damage; assay type: in vivo, Hordeum vulgare
# Description: as §1, §2
# as §3, with “In contrast, the crop plants were, as a consequence of the treatments with the herbicidal compositions, damaged only to a small degree, if at all.” left out
# [4] = tested on: winter wheat; experiment: as above; assay type: in vivo, Triticum aestivum
# Description: as §1, §2
# as §3, with “In contrast, the crop plants were, as a consequence of the treatments with the herbicidal compositions, damaged only to a small degree, if at all.” left out
# [5] = tested on: Alopecurus myosuroides; experiment: Example 9 field trials, application 1-3 leaf stage broad-leaved weeds: herbicidal effect; assay type: in vivo; details: 120 to 160 days after application
# Description: as §1, §2, §3
# [6] = tested on: Capsella bursa-pastoris; experiment: as above; assay type: in vivo; details: 120 to 160 days after application
# Description: as §1, §2, §3
# [7] = tested on: Galium aparine; experiment: Example 10 pre-emergence application, fall: herbicidal effect; assay type: in vivo; details: 1000 g of ai/ha; 169 days after application
# Excerpt: (§4) Seeds or rhizome pieces of monocotyledonous and dicotyledonous weed plants are placed in sandy loam soil in pots and covered with soil. The compositions, formulated in the form of concentrated aqueous solutions, wettable powders or emulsion concentrates, are then applied to the surface of the soil cover as aqueous solution, suspension or emulsion at an application rate of 600 to 800 l of water/ha (converted), in various dosages. After the treatment, the pots are placed in a greenhouse and kept under good growth conditions for the weeds. After the test plants have emerged, the damage to the plants or the negative effects on the emergence is scored visually after a test period of 3 to 4 weeks by comparison with untreated controls. As shown by the test results, the compositions according to the invention have good herbicidal pre-emergence activity against a broad spectrum of weed grasses and broad-leaved weeds.
# as §1, §2, §3
# [8] = tested on: winter wheat; experiment: Example 10 pre-emergence application, fall: crop damage; assay type: in vivo, Triticum aestivum; details: winter wheat (Triticum aestivum), in vivo, 169 days
# Excerpt: as §4, §1, §2, §3
# [9] = tested on: Sorghum verticilliflorum; experiment: Example 13 field trial, 2- to 4-leaf stage: herbicidal effect; assay type: in vivo; details: 17 days after application
# Description: as §1, §2, §3
# [10] = tested on: summer wheat; experiment: Example 13 field trial, 2- to 4-leaf stage: crop damage; assay type: in vivo, Triticum aestivum; details: 17 days after application
# Description: as §1, §2, §3
# [11] = tested on: winter wheat; experiment: Example 8 field trial, 4-leaf stage: crop damage; assay type: in vivo, Triticum aestivum; details: 28 days after application
# Description: as §1, §2
# as §3, with “In contrast, the crop plants were, as a consequence of the treatments with the herbicidal compositions, damaged only to a small degree, if at all.” left out
# [12] = tested on: Veronica hederofolia; experiment: Example 8 field trial, 4-leaf stage: herbicidal effect; assay type: in vivo; details: 28 days after application
# Description: as §1, §2
# as §3, with “In contrast, the crop plants were, as a consequence of the treatments with the herbicidal compositions, damaged only to a small degree, if at all.” left out
# [13] = tested on: Matricaria chamomilla; experiment: Example 14 field trial, 2- to 4-leaf stage: herbicidal effect; assay type: in vivo; details: 28 days after application
# Description: as §1, §2, §3
# [14] = tested on: summer wheat; experiment: Example 14 field trial, 2- to 4-leaf stage: crop damage; assay type: in vivo, Triticum aestivum; details: 28 days after application
# Description: The damage and development of all above-ground parts of the plants were recorded.
# Crop plants were grown outdoors on plots under natural outdoor conditions, and seeds or rhizome pieces of typical harmful plants were laid out or the natural weed growth was utilized.
# [15] = tested on: Monochoria vaginalis; experiment: Example 22 field trial, 2-leaf stage: herbicidal effect; assay type: in vivo; details: 14 days after application
# Description: as §1, §2, §3
# [16] = tested on: Oryza sativa (rice); experiment: Example 22 field trial, 2-leaf stage: crop damage; assay type: in vivo
# Description: as §1, §2, §3
# [17] = tested on: Euphorbia heterophylla; experiment: Example 20 field trial, 3-leaf stage: herbicidal effect; assay type: in vivo; details: 31 days after application
# Description: as §1, §2, §3
# [18] = tested on: Oryza sativa (rice); experiment: Example 20 field trial, 3-leaf stage: crop damage; assay type: in vivo; details: in vivo
# Description: as §1, §2, §3
# [19] = tested on: winter barley; experiment: Example 5 field trial, 2-4 leaf stage: crop damage; assay type: in vivo, Hordeum vulgare; details: winter barley (Hordeum vulgare), in vivo, 28 days
# Description: as §1, §2
# as §3, with “In contrast, the crop plants were, as a consequence of the treatments with the herbicidal compositions, damaged only to a small degree, if at all.” left out
# [20] = tested on: Papaver rhoeas; experiment: Example 5 field trial, 2-4 leaf stage: herbicidal effect; assay type: in vivo; details: 2.5 g of ai/ha; 28 days after application
# Description: as §1, §2
# as §3, with “In contrast, the crop plants were, as a consequence of the treatments with the herbicidal compositions, damaged only to a small degree, if at all.” left out
# [21] = 100 g of ai/ha, 120 to 160 days after application
smiles,measurement,setting,value
"CC(C)c1ccc(NC(=O)N(C)C)cc1 [(B1.1.1), isoproturon, reference compound]","damage, HORVW",[1],0%
same,"herbicidal effect, PAPRH",[2],15%
same,"damage, HORVW","[3]; winter barley (Hordeum vulgare), in vivo",0%
same,"damage, TRZAW","[4]; winter wheat (Triticum aestivum), in vivo",0%
same,"herbicidal effect, ALOMY",[5]; 2000 g of ai/ha,0%
same,"herbicidal effect, CAPBP",[6]; 2000 g of ai/ha,0%
same,"herbicidal effect, GALAP",[7],15%
same,"damage, TRZAW",[8],0%
"CC(C)(F)c1nc(N)nc(NC(CCCc2ccccc2)C2CC2)n1 (stereo not drawn) [(A2), 4-amino-6-(1-fluoro-1-methylethyl)-2-(4-phenyl-1-cyclopropylbutylamino)-1,3,5-triazine]","damage, HORVW",[3]; [21],0%
same,"damage, TRZAW",[4]; [21],0%
same,"herbicidal effect, ALOMY",[5]; 100 g of ai/ha,0%
same,"herbicidal effect, CAPBP",[6]; 100 g of ai/ha,90%
"CCC(CC)Nc1c([N+](=O)[O-])cc(C)c(C)c1[N+](=O)[O-] [(B1.2.2), pendimethalin]","herbicidal effect, GALAP",[7],30%
"N#Cc1cc(Br)c(O)c(Br)c1 [(B2.3.1), bromoxynil]","herbicidal effect, SORVE",[9]; 225 g of ai/ha,0%
same,"herbicidal effect, SORVE",[9]; 450 g of ai/ha,25%
same,"damage, TRZAS",[10]; 225 g of ai/ha,0%
same,"damage, TRZAS",[10]; 450 g of ai/ha,0%
"COc1cc(Cl)cc(OCC(C)Nc2nc(N)nc(C(C)(C)F)n2)c1 (stereo not drawn) [(A5), 4-amino-6-(1-fluoro-1-methylethyl)-2-[2-(3-chloro-5-methoxyphenoxy)-1-methylethylamino]-1,3,5-triazine]","damage, TRZAW",[11]; 25 g of ai/ha,0%
same,"damage, TRZAW",[11]; 50 g of ai/ha,0%
same,"damage, TRZAW",[11]; 100 g of ai/ha,0%
same,"herbicidal effect, VERHE",[12]; 25 g of ai/ha,14%
same,"herbicidal effect, VERHE",[12]; 50 g of ai/ha,22%
same,"herbicidal effect, VERHE",[12]; 100 g of ai/ha,34%
"Cc1cc(Cl)ccc1O[C@@H](C)C(=O)O [(B2.2.4), mecoprop-P]","herbicidal effect, MATCH",[13]; 750 g of ai/ha,54%
same,"herbicidal effect, MATCH",[13]; 1500 g of ai/ha,63%
same,"damage, TRZAS",[14]; 750 g of ai/ha,0%
same,"damage, TRZAS",[14]; 1500 g of ai/ha,0%
"CCOC(=O)C(Cl)Cc1cc(-n2nc(C)n(C(F)F)c2=O)c(F)cc1Cl (stereo not drawn) [(B2.6.3), carfentrazone-ethyl, reference compound]","herbicidal effect, MOOVA",[15]; 60 g of ai/ha,47%
same,"damage, ORYSA","[16]; 60 g of ai/ha, 14 days after application",0%
"CCOc1ccccc1OS(=O)(=O)NC(=O)Nc1nc(OC)cc(OC)n1 [(B2.1.9), ethoxysulfuron, reference compound]","herbicidal effect, EPHHL",[17]; 22.5 g of ai/ha,45%
same,"herbicidal effect, EPHHL",[17]; 45 g of ai/ha,65%
same,"damage, ORYSA",[18],0%
"COc1nc(C)nc(NC(=O)NS(=O)(=O)c2cc(I)ccc2C(=O)O)n1 [(B3.1.4), iodosulfuron-methyl sodium salt, reference compound]","damage, HORVW",[19],0%
same,"herbicidal effect, PAPRH",[20],0%
"C#CCN(C)c1c(C#N)cnn1-c1nn2c(c1Cl)CCCC2 [(B1.6.14), reference compound]","herbicidal effect, MOOVA",[15]; 25 g of ai/ha,82%
same,"damage, ORYSA",[16]; in vivo,0%
